Experiments:
Sir2Af2 [1] = target: T1, Sir2Af2 (Archaeoglobus fulgidus, UniProt O30124); experiment: Low temperature ^1H NMR analysis of Sir2p reaction products (order of product formation); assay type: biochemical; conditions: 5° C.
T1 construct: made in house
T1 sequence (O30124 1-253): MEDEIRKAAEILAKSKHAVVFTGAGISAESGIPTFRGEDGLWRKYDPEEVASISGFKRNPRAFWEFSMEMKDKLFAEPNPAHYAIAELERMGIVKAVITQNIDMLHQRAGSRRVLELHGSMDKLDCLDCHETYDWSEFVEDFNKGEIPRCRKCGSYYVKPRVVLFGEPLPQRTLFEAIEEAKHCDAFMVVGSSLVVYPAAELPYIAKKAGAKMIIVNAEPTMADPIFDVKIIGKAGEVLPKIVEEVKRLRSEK
Experimental: Low temperature studies of Sir2Af2 to identify order of product production. Sir2Af2 catalyzed deacetylation reactions were performed at 8° C. to determine the order of product formation. A 200 μL solution containing 150 μM NAD^+, 300 μM peptide JB12, in 40 mM potassium phosphate pH 6.2 were cooled to 8° C. and then 1 μL of 9 μg/μL of Sir2Af2 was added to initiate the reaction. Reactions were assayed by HPLC using 0.5% TFA as an eluant. Peals at 17 and 20 min were used to quantitate 3′- and 2′-AADPR at 30 minute intervals.
Low temperature ^1H NMR analysis of Sir2p reaction products. A solution of 1.7 mg Sir2Af2 enzyme in 95% D2O, 50 mM potassium phosphate pH 6.3 was concentrated to 550 μL using centrifugation filtration. This sample was mixed with 2 mg JB12 peptide and cooled to 5° C. in a 600 MHz NMR spectrometer. Spectra were obtained and 280 μL of ice-chilled 22 mM NAD^+ solution in 50 mM potassium phosphate pH 6.3 in 99% D2O was added to initiate the reaction. ^1H NMR 1D spectra were obtained at intervals over 18 hr at 5° C.

[2] = Interconversion rates of 2′- and 3′-AADPR (HPLC, NMR); assay type: physicochemical
Experimental: Interconversion rates of 2′- and 3′-AADPR. Sample of both 2′- and 3′-AADPR were incubated at 15° C. and analyzed by HPLC at 40 min intervals (C-18 column; 50 mM ammonium acetate pH 5.0). The percent of the 3′-isomer at a given time was fit to the equation 3′-AADPR (%)=Pa exp (−kt)+Pf where Pa+Pf=P0; where Pa is the percent of the 3′-isomer above equilibrium at time=0, t is time and k is the first order rate constant for the conversion. Pf is the percent at equilibrium and P0 is the initial percent. HPLC and NMR analysis established the 2′- and 3′-isomers concentration as a function of time. NMR was in 10% d4-methanol/90% D2O at 0° C. or in 100% D2O at 20° C.

CD38 = CD38 controls with ara-F-NAD^+ (base exchange, inhibition); assay type: biochemical, human
Experimental: (§1) Ara-F-NAD^+ as an NAD^+ analogue. Ara-F NAD^+ is an inhibitor of ADP-ribosyl-transferase and was used to evaluate Sir2Af2. Ara-F-NAD^+ was synthesized as previously reported^44. Deacetylation of peptide JB12 (300 μM) by Sir2Af2 (10 μg) in the presence of ara-F-NAD^+ (50 μM) was tested in 200 μL of 40 mM potassium phosphate pH 6.25. No change of ara-F-NAD^+ was detected by C-18 reverse phase HPLC. […] A control run with […] and NAD^+ established [Carbonyl-^14C]-nicotinamide exchange into NAD^+, confirming the Sir2 base-exchange reaction. […] Inhibition of Sir2Af2 by ara-F-NAD^+ was evaluated by incubation of Sir2Af2 enzyme (7 μM) and ara-F-NAD^+ (20 μM) in the presence of 300 μM JB12 peptide in potassium phosphate pH 6.25 buffer. A reaction mixture lacking ara-F NAD^+ was the control. A positive control used the same reaction components but 500 nM CD38 in the presence of 5 μM ara-F-NAD^+. Reactions were initiated after 6 h by adding 150 μM NAD^+. Reactions were evaluated for catalytic turnover using HPLC. Catalytic turnover of Sir2Af2 was not inhibited by ara-F-NAD^+ under these reaction conditions.

[3] = system: ADP-ribosyltransfer enzymes; conditions: cited from earlier work
Sir2Af2 [4] = target: T1, Sir2Af2; experiment: Ara-F-NAD^+ as NAD^+ analogue: substrate and nicotinamide exchange reactions with Sir2Af2; assay type: biochemical; conditions: for [Carbonyl-^14C]-nicotinamide exchange catalysed by Sir2Af2: 5 mM nicotinamide, 300 μM peptide; for Substrate in Sir2Af2 deacetylation of peptide JB12: ara-F-NAD^+ 50 μM, JB12 300 μM, pH 6.25, C-18 HPLC
Experimental: as §1

[5] = cited from earlier work
Sir2Af2 [6] = target: T1, Sir2Af2; experiment: Inhibition of Sir2Af2 catalytic turnover by ara-F-NAD^+ (HPLC); assay type: biochemical; conditions: Sir2Af2 7 μM, ara-F-NAD^+ 20 μM, 300 μM JB12, 6 h then 150 μM NAD^+
Experimental: as §1

Sir2 = conditions: cited from earlier work
[7] = Stability of authentic β-1′-AADPR (elimination as a Sir2p product); assay type: physicochemical; conditions: 100 μM, 40 mM phosphate buffer pH 6.25, one hr at 55° C., HPLC
Description: Elimination of β-1′-AADPR as a Sir2p product.

esterase activity [8] = experiment: Breakdown of AADPR by esterase activity in rat liver extract; assay type: in vitro ADME
Description: (§2) The use of AADPR or radiolabeled AADPR is a strategy to characterize and discover the esterases (or other enzymes) that break down or utilize AADPR in vivo. Specifically, AADPR breakdown can be measured by HPLC or TLC assay. When radiolabels are used, amounts of AADPR necessary for this purpose can be as small as 250 pmoles.

esterase activity [9] = experiment: Breakdown of AADPR by esterase activity in hamster ovary cell extract; assay type: in vitro ADME; conditions: hamster ovary cells extract
Description: as §2

Sir2Af1 = target: T2, Sir2Af1 (Archaeoglobus fulgidus, UniProt O28597); conditions: cited from earlier work
T2 construct: made in house
T2 sequence (O28597 1-245): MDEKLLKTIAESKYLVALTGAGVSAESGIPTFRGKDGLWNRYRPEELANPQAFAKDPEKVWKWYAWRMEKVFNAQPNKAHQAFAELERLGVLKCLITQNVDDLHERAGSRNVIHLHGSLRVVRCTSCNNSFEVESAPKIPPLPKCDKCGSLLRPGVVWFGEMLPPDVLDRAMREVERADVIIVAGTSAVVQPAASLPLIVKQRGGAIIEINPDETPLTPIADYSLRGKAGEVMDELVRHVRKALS

AfSir2 = experiment: Inhibition of AfSir2 by ADPR; assay type: biochemical, Archaeoglobus fulgidus

With `CC(=O)O[C@H]1C(O)O[C@H](COP(=O)(O)OP(=O)(O)OC[C@H]2O[C@@H](n3cnc4c(N)ncnc43)[C@H](O)[C@@H]2O)[C@H]1O` (stereo partly drawn) [2′-AADPR, 2′-O-acetyl-ADP-ribose] the “ratio kcat/k2′-3′” value (Sir2Af2 [1]) was 20, the “rate of chemical exchange of the acetyl group” value ([2]; 15° C.) was 0.45 h⁻¹ and the “α/β anomeric equilibrium rate” value ([2]; NMR) was greater than 50 s⁻¹. The “calculated value for k3′ to 2′” value ([2]; calculated from K and the measured rate constant, 15° C.) was 0.45 h⁻¹ and the “time to establish 2′/3′ equilibrium” value ([2]; physiological temperatures of 37° C.) was no more than 60 min.
In the case of `CC(=O)O[C@@H]1[C@@H](COP(=O)(O)OP(=O)(O)OC[C@H]2O[C@@H](n3cnc4c(N)ncnc43)[C@H](O)[C@@H]2O)OC(O)[C@@H]1O` (stereo partly drawn) [3′-AADPR, 3′-O-acetyl-ADP-ribose], the “rate of chemical exchange of the acetyl group” value ([2]; 15° C.) is reported as 0.32 h⁻¹, the “equilibrium constant K” value ([2]; 15° C., HPLC peak integrations of the 2′- and 3′-isomers) is reported as 1.4 and the “first-order rate constant for acetyl migration k3′ to 2′” value ([2]; fit to exponential decay curve, 15° C.) is reported as 0.32 h⁻¹.
In the case of `NC(=O)c1ccc[n+]([C@@H]2O[C@H](COP(=O)([O-])OP(=O)(O)OC[C@H]3O[C@@H](n4cnc5c(N)ncnc54)[C@H](O)[C@@H]3O)[C@@H](O)[C@H]2F)c1` [ara-F-NAD^+], the “Activity (inactivation) on CD38 positive control” value (CD38; 500 nM CD38, 5 μM ara-F-NAD^+) is given as “activity on the control using CD38”, the “Base exchange with [^14C]nicotinamide catalysed by CD38” value (CD38; control) is given as “full base exchange” and the “Inhibitor of ADP-ribosyltransfer enzymes” value [3] is given as “powerful inhibitor”. For the same compound, the “[Carbonyl-^14C]-nicotinamide exchange catalysed by Sir2Af2” value (Sir2Af2 [4]) was “no radioactivity incorporated”, the “[Carbonyl-^14C]-nicotinamide exchange catalysed by Sir2Af2” value (Sir2Af2 [4]; listed as Ara-F NAD^+) was “did not serve as a substrate” and the “Substrate in Sir2Af2 deacetylation of peptide JB12” value (Sir2Af2 [4]) was “No change”. The “Substrate in Sir2Af2 deacetylation of peptide JB12” value (Sir2Af2 [4]; listed as Ara-F NAD^+) was “did not serve as a substrate”, the “Stability relative to NAD^+” value [5] was “roughly 50 times” and the “Inhibition of Sir2Af2 catalytic turnover” value (Sir2Af2 [6]) was “not inhibited”. For the same compound, the “Inhibition of Sir2Af2 catalytic turnover” value (Sir2Af2 [6]; listed as Ara-F-NAD^+) was “did not inactivate”.
In the case of `NC(=O)c1cccnc1` [nicotinamide], the “Inhibition of Sir2” value (Sir2) is given as “inhibits the enzyme”.
In the case of `CC(=O)O[C@@H]1O[C@H](COP(=O)(O)OP(=O)(O)OC[C@H]2O[C@@H](n3cnc4c(N)ncnc43)[C@H](O)[C@@H]2O)[C@@H](O)[C@H]1O` [β-1′-AADPR], the “Change of β-1′-AADPR and production of 2′- or 3′-AADPR on incubation” value [7] is reported as “no change”.
In the case of “acetyl adenosine diphosphate ribose [AADPR]”, the “Breakdown of AADPR to ADPR and acetate” value (esterase activity [8]) is reported as “high esterase activity exists that can breakdown AADPR” and the “Breakdown of AADPR to ADPR and acetate” value (esterase activity [9]) is reported as “high esterase activity exists that can breakdown AADPR”.
For “acetylated BSA: acetylated BSA, a non physiologic substrate”, the “Substrate of Sir2Af1 as reported in the literature” value (Sir2Af1) is given as “is a substrate”.
For adenosine diphosphate ribose [ADPR], the “Inhibition of AfSir2” value (AfSir2) was “potent inhibitor”.
